In publication PMC10860182 (ACS Medicinal Chemistry Letters, 2024):
Read-outs that look alike come from different tables or passages of the source.

Experiments:
[1] = biological target: human 5-HT2C (Homo sapiens, UniProt P28335); settings: % 5-HT Max, human 5-HT2C-CHO cells
[2] = biological target: human 5-HT2A (Homo sapiens, UniProt P28223); settings: for 5-HT2A % Max: % 5-HT Max, human 5-HT2A-CHO cells; for higher agonist potency for 5-HT2B and 5-HT2C relative to 5-HT2A: compared with 5-HT2A potency
Sequence of human 5-HT2A (P28223 whole entry): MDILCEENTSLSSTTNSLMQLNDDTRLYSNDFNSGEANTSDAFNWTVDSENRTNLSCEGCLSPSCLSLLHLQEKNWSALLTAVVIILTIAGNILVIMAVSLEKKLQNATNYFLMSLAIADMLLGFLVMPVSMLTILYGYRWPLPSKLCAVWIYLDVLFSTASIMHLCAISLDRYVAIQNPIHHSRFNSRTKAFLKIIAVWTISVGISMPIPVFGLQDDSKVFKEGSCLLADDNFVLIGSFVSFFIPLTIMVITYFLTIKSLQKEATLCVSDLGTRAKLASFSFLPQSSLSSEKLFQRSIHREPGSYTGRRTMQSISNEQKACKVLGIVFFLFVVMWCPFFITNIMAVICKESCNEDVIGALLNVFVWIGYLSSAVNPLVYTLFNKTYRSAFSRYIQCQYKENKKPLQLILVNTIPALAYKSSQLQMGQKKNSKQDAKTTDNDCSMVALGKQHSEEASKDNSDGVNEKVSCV

[3] = biological target: human 5-HT2B (Homo sapiens, UniProt P41595); settings: % 5-HT Max, human 5-HT2B-HEK293 cells
Sequence of human 5-HT2B (P41595 whole entry): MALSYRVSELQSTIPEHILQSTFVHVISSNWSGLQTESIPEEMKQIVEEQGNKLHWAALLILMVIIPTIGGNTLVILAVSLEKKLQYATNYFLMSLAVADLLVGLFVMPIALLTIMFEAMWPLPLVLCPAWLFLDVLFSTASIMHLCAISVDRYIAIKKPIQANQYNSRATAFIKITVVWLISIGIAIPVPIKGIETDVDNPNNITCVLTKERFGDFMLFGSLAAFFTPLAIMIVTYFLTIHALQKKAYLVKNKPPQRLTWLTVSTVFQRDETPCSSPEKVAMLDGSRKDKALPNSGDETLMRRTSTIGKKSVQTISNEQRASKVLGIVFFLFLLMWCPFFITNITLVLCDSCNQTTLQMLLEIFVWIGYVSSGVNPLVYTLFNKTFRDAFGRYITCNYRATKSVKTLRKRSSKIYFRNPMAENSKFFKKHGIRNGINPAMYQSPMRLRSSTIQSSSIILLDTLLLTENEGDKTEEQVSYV

[4] = rat PK cassette, iv, 0.2 mg/kg
[5] = in vitro; settings: human, plasma, pH 7.4
[6] = predicted hepatic clearance, human hepatic microsomes
[7] = in vivo; settings: male, Sprague Dawley, rat, iv, 0.2 mg/kg
[8] = predicted hepatic clearance, rat
[9] = in vitro; settings: mouse, plasma, pH 7.4
[10] = biological target: T1, P-gp (Homo sapiens, UniProt P08183); assay: in vitro; settings: MDCK-MDR1
T1 sequence (P08183 whole entry): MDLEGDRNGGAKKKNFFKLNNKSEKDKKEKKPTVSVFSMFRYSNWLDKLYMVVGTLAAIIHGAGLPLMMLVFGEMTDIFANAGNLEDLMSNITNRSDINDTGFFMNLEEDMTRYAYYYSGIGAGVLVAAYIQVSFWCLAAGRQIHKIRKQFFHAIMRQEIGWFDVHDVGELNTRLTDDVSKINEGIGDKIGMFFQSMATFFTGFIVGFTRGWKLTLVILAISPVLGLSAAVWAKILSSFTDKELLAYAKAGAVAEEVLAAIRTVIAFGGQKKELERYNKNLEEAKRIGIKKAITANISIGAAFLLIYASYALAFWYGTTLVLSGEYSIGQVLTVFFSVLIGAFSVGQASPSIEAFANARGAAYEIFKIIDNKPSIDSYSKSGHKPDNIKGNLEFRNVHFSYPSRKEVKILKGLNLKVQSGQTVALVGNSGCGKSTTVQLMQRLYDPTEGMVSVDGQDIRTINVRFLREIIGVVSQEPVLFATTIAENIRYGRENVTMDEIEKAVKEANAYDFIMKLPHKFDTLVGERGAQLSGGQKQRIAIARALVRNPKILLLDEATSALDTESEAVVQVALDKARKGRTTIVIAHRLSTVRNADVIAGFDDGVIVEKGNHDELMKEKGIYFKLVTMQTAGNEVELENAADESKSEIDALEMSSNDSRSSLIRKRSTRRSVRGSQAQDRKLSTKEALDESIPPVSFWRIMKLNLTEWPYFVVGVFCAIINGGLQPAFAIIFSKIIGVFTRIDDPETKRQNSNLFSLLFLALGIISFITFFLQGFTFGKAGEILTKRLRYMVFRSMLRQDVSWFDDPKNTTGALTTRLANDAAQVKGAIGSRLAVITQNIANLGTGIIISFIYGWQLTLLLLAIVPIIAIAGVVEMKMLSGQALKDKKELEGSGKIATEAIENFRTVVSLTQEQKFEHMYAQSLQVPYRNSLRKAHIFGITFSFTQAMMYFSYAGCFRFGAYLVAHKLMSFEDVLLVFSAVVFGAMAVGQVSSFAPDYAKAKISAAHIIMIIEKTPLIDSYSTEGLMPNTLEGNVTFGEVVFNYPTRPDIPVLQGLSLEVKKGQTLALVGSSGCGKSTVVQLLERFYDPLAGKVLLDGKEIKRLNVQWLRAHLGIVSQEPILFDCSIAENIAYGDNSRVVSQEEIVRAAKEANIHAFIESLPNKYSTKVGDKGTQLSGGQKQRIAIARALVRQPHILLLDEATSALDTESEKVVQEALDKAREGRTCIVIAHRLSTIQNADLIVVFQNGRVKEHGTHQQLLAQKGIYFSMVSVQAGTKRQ

[11] = biological target: T1, P-gp; settings: MDCK-MDR1 cells, 5 µM
[12] = in vitro; settings: rat, plasma, pH 7.4
[13] = tested on: 5-HT2B; settings: read-out: 5-HT2B EC50; previously described, patent application ref 20; cited from earlier work

Sequence of human 5-HT2C (P28335 33-458): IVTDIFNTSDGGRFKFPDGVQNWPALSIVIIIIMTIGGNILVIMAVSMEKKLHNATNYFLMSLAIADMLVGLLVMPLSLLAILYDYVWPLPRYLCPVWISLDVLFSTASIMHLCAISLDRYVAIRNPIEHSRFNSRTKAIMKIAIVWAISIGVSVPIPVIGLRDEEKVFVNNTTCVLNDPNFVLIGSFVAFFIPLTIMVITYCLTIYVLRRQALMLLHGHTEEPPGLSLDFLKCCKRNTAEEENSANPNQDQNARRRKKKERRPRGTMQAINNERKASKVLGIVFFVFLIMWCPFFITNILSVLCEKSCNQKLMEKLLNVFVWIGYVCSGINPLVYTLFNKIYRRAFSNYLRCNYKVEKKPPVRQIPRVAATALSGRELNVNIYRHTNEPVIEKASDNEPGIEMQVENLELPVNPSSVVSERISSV

Compound | 5-HT2C % Max [1] [%] | 5-HT2A % Max [2] [%] | 5-HT2B % Max [3] [%] | CLhep [6] | also measured
Cn1nc(C2=CCCNC2)c2ccccc21 [Compound 19b] | 50.3 ± 2.4 | 42.2 ± 3.7 | 48.0 ± 4.8 |  | higher agonist potency for 5-HT2B and 5-HT2C relative to 5-HT2A [2]: approximately 10 fold
Brc1ccc2[nH]nc(C3=CCCNC3)c2c1 [Compound 19d] | 93.9 | 41.4 ± 3.4 | 82.8 ± 1.9 | 5.6 (mL/min)/kg | CLp [4]: 34.2 (mL/min)/kg; fraction unbound at 6 h, 5 µM [5]: 0.12; Kp at 0.25 h ([7]; brain): 5.4; Vd at 24 h ([7]; plasma): 6.33 L/kg; half-life at 24 h ([7]; plasma): 2.8 h; CLhep [8]: 58 (mL/min)/kg; fraction unbound at 6 h, 5 µM [9]: 0.12; efflux ratio at 5 µM [10]: 1.3; PappA-B [11]: 7.9 10^–6 cm/s; fraction unbound at 6 h, 5 µM [12]: 0.13
[2H]C([2H])(Cc1n[nH]c2ccc(OC)cc12)N(C)C [Compound 6b] | 32.3 | 11.7 ± 0.6 | 60.5 | 11.7 (mL/min)/kg | 
COc1ccc2[nH]nc(CCN(C)C)c2c1 [Compound 6a] | 32.1 ± 2.2 | 10.7 ± 0.6 | 48.0 ± 7.6 | 12.1 (mL/min)/kg | EC50 [13]: > 10 µM
C1=C(c2n[nH]c3ccccc23)CNCC1 [Compound 19a] | 67.7 ± 6.6 | 17.5 ± 3.2 | 83.8 ± 1.9 |  | higher agonist potency for 5-HT2B and 5-HT2C relative to 5-HT2A [2]: approximately 10 fold
COc1ccc2[nH]nc(C3=CCCNC3)c2c1 [Compound 19f] | 59.8 ± 3.2 | 12.3 ± 1.8 | 93.6 |  | 
Nc1ccc2[nH]nc(C3=CCCNC3)c2c1 [Compound 19e] | 86.9 | 40.4 ± 1.3 | 96.1 |  | 
CN(C)CCc1n[nH]c2ccc(O)cc12 [Compound 16] | 53.3 | 26.2 ± 1.4 | 53.7 |  | 
